According to patent US20240299562A1 (priority 2020, published 2024):
Where two headings read alike, the source gives them in different places. Values belong to the compound of their own block, whether it stands above or below them. *1 amine or outer side, *2 acyl side, *3 side chain or, on linkers, in order; H or OH if unused. Where a SMILES comes first, the peptide text is derived from it. [ ]: non-standard residue; d: D form. The star is where a group is joined. X1 = CO[C@@H](C1CCCN1[*:1])[C@@H](C)C(=O)[*:2]; Dil = CC[C@H](C)[C@H](NC)[C@@H](CC(=O)O)OC; PABC = O=C(OCc1ccc(N[*:1])cc1)[*:2]; Phosphonoacetyl = O=C(CP(=O)(O)O)*; X2 = C[C@@H](N*)[C@@H](O)c1ccccc1; NMeV = CN[C@H](C(=O)O)C(C)C

Legend:
[1] = tested on: A2780 Cp cells; assay: WST-1 cell viability, A2780 CpR (cisplatin resistant) ovarian cancer cells; type: cell-based
Experimental: (§1) All commercial cell lines were purchased at ATCC (LGC Standards SARL, France). Cells were seeded in 96-well plates according to their optimal seeding density, varying between 5.000 and 10.000 cells/well. After attachment overnight, 10-point serial titrations (1:5) were prepared in their equivalent complete media as recommended by ATCC, starting from the 10 mM stock solutions. For doxorubicin comprising prodrugs dilutions started from 100 μM, while for the parent compound doxorubicin dilutions started at 10 μM. […] Seventy-two hours later, compounds were removed together with the supernatants and cells were washed once with PBS to remove excess drugs.
(§2) The WST-1 assay for cell proliferation and viability (Roche, Switzerland) was performed according to manufacturer's protocol. Absorbances were measured at 4 hrs using a Perkin Elmer Ensight multiplate reader, equipped with Kaleido 2.0 software (Perkin Elmer, USA). Cell viability was expressed as a percentage compared to non-treated cells. Absolute IC50 values were extrapolated from a non-linear fitting following the Sigmoidal-4PL regression method using Graphpad Prism 7.0. Likewise, maximal efficacy was determined as 100% minus the cell viability determined when cells are incubated in the presence of a compound. For instance, if 20% of the cells survive incubation in the presence of a compound, then the maximal efficacy of that compound is 100%-20%=80%.
(§3) Selectivity indices (SI) were defined as the ratio of the concentration of drug required to kill 50% of the cells in normal (control, non-cancer) cells, divided by the concentration required to exert the same efficacy in tumor cells: SI=IC50 (control cell)/IC50 (cancer cell), or SI=^HME-1IC50/cancer IC50.

[2] = tested on: NCI-H292 cells; assay: WST-1 cell viability, NCI-H292 lung cancer cells; type: cell-based
Experimental: as §1, §2, §3

[3] = tested on: MDA-MB-468 cells; assay: WST-1 cell viability, MDA-MB-468 triple negative breast cancer cells; type: cell-based
Experimental: as §1, §2, §3

[4] = tested on: U87 MG glioblastoma cells subcutaneously implanted in nude NMRI mice; assay: In vivo activity of PhAc-ALLP-Dox on U87 MG glioblastoma xenograft; set-up: species or system mouse; conditions: 5 mg/kg iv, once per week
Experimental: The in vivo efficacy of PhAc-ALLP-Dox was tested in a mouse GBM model. U87 MG glioblastoma cells were subcutaneously (SC) implanted in nude NMRI mice. In total, 32 adult (9-10 weeks old) nude female NMRI mice (Janvier, France) were subjected to SC tumor cell grafting in the right flank. In total, 5×10^6 U87 MG cells resuspended in PBS plus Matrigel (1:1) were injected in 200 uL final volume. As soon as the tumors were palpable and reached the volume of 200 mm3 the treatment was started. At day zero, mice were randomly divided into 4 groups, based on the tumor volume, in order to have the following experimental sub-cohorts: • control group receiving the vehicle (PBS pH7.2) with a dose of 5 ml/kg, intravenously (iv), once per week (QW); • PhAc-ALLP-Dox (30 mg/kg iv, QW); • PhAc-ALGP-Dox (154 mg/kg iv, QW); • Dox (5 mg/kg iv, QW).
Treatments were performed once per week for a total of four tail vein administrations/injections (on days 1, 7, 14 and 21). One extra week of observation followed the active treatment phase. During the experiment, tumor volume was measured two times a week and was assessed three-dimensionally with a digital caliper (Mitutoyo, Illinois) using the following formula:
V=4/3π×[(d/2)^2×(D/2)], where d is the minor tumor axis and D is the major tumor axis.

[5] = tested on: HME-1 cells; assay: WST-1 cell viability, normal HME-1 cells; type: cell-based, human; conditions: for IC50: read-out: Absolute IC50
Experimental: as §1, §2, §3

[6] = WST-1 cell viability, normal HME-1 cells; type: cell-based, human; conditions: human
Experimental: as §1, §2, §3

[7] = tested on: A-172 cells; assay: WST-1 cell viability, A-172 glioblastoma cells; type: cell-based; conditions: for IC50: read-out: Absolute IC50
Experimental: as §1, §2, §3

[8] = tested on: U-87 MG cells; assay: WST-1 cell viability, U-87 MG glioblastoma cells; type: cell-based; conditions: for IC50: read-out: Absolute IC50
Experimental: as §1, §2, §3

[9] = tested on: A2780 cells; assay: WST-1 cell viability, A2780 ovarian cancer cells; type: cell-based
Experimental: as §1, §2, §3

[10] = tested on: MDA-MB-231 cells; assay: WST-1 cell viability, MDA-MB-231 triple negative breast cancer cells; type: cell-based; conditions: for IC50: read-out: Absolute IC50
Experimental: as §1, §2, §3

[11] = tested on: HCT-116 cells; assay: WST-1 cell viability, HCT-116 colorectal cancer cells; type: cell-based
Experimental: as §1, §2, §3

[12] = tested on: DU145 cells; assay: WST-1 cell viability, DU145 prostate cancer cells; type: cell-based
Experimental: as §1, §2, §3

[13] = tested on: A2058 cells; assay: WST-1 cell viability, A2058 melanoma cells; type: cell-based; conditions: for IC50: read-out: Absolute IC50
Experimental: as §1, §2, §3

[14] = tested on: Human umbilical vein endothelial cells (HUVEC); assay: WST-1 cell viability, normal HUVEC cells; type: cell-based; conditions: 72 hrs
Experimental: as §1, §2, §3

IC50 ([1]; A2780C/P, A2780 Cp (OvC, cisplatin resistant), 72 hrs, WST-1 (Table 1), read-out: Absolute IC50): 0.08 µM | SI = HME-1 IC50/cancer IC50 ([1]; A2780 Cp (OvC) vs HME-1 (Table 3)): 0.57 | IC50 ([2]; Homo sapiens, NCI-H292 (NSCLC), 72 hrs, WST-1 (Table 1), read-out: Absolute IC50): 0.03 µM | SI = HME-1 IC50/cancer IC50 ([2]; NCI-H292 (NSCLC) vs HME-1 (Table 3)): 1.62 | IC50 ([3]; Homo sapiens, MDA-MB-468 (TNBC), 72 hrs, WST-1 (Table 1), read-out: Absolute IC50): < 0.01 µM | SI = HME-1 IC50/cancer IC50 ([3]; MDA-MB-468 (TNBC) vs HME-1 (Table 3)): 12.64 | SI = HME-1 IC50/cancer IC50 ([7]; A-172 (GBM) vs HME-1 (Table 3)): 0.01 | IC50 ([7]; Homo sapiens, A-172 (GBM), 72 hrs, WST-1 (Table 1)): 3.36 µM | IC50 ([8]; Homo sapiens, U-87 MG (GBM), 72 hrs, WST-1 (Table 1)): 0.07 µM | SI = HME-1 IC50/cancer IC50 ([8]; U-87 MG (GBM) vs HME-1 (Table 3)): 0.59 | SI = HME-1 IC50/cancer IC50 ([9]; A2780 (OvC) vs HME-1 (Table 3)): 9.15 | IC50 ([9]; Homo sapiens, A2780 (OvC), 72 hrs, WST-1 (Table 1), read-out: Absolute IC50): < 0.01 µM | IC50 ([10]; Homo sapiens, MDA-MB-231 (TNBC), 72 hrs, WST-1 (Table 1)): 0.12 µM | SI = HME-1 IC50/cancer IC50 ([10]; MDA-MB-231 (TNBC) vs HME-1 (Table 3)): 0.38 | SI = HME-1 IC50/cancer IC50 ([11]; HCT-116 (CrC) vs HME-1 (Table 3)): 0.36 | IC50 ([11]; Homo sapiens, HCT-116 (CrC), 72 hrs, WST-1 (Table 1), read-out: Absolute IC50): 0.12 µM | SI = HME-1 IC50/cancer IC50 ([12]; DU145 (PrC) vs HME-1 (Table 3)): 1.55 | IC50 ([12]; Homo sapiens, DU-145, DU145 (PrC), 72 hrs, WST-1 (Table 1), read-out: Absolute IC50): 0.03 µM | SI = HME-1 IC50/cancer IC50 ([13]; A2058 (Melanoma) vs HME-1 (Table 3)): 0.11 | IC50 ([13]; Homo sapiens, A2058 (Melanoma), 72 hrs, WST-1 (Table 1)): 0.41 µM
SMILES: COc1cccc2c1C(=O)c1c(O)c3c(c(O)c1C2=O)C[C@@](O)(C(=O)CO)C[C@@H]3O[C@H]1C[C@H](N)[C@H](O)[C@H](C)O1 [Doxorubicin, reference compound]
cytotoxicity at 100 µM ([1]; A2780C/P, A2780 Cp (OvC), 72 hrs, WST-1 (Table 2), read-out: Maximal efficacy, cytotoxicity (%) at 100 μM): 94.8% | cytotoxicity at 100 µM ([2]; Homo sapiens, NCI-H292 (NSCLC), 72 hrs, WST-1 (Table 2), read-out: Maximal efficacy, cytotoxicity (%) at 100 μM): 90.4% | cytotoxicity at 100 µM ([3]; Homo sapiens, MDA-MB-468 (TNBC), 72 hrs, WST-1 (Table 2), read-out: Maximal efficacy, cytotoxicity (%) at 100 μM): 95.5% | Tumor growth [4]: significantly reduced tumor growth | SI = HME-1 IC50/cancer IC50 ([5]; HME-1 normal cells against themselves (Table 3)): 1.00 | IC50 ([5]; Homo sapiens, HME1, HME-1 normal cells, 72 hrs continuous drug exposure, WST-1 (Table 1)): 0.04 µM | cytotoxicity at 72 h, 100 µM [6]: 96.5% | cytotoxicity at 100 µM ([7]; Homo sapiens, A 172, 72 h, read-out: Maximal efficacy, cytotoxicity (%) at 100 μM): 89.9% | cytotoxicity at 100 µM ([8]; Homo sapiens, U-87 MG, 72 h, read-out: Maximal efficacy, cytotoxicity (%) at 100 μM): 71.8% | cytotoxicity at 100 µM ([9]; Homo sapiens, A2780 (OvC), 72 hrs, WST-1 (Table 2), read-out: Maximal efficacy, cytotoxicity (%) at 100 μM): 96% | cytotoxicity at 100 µM ([10]; Homo sapiens, MDA-MB-231, 72 h, read-out: Maximal efficacy, cytotoxicity (%) at 100 μM): 91.5% | cytotoxicity at 100 µM ([11]; Homo sapiens, HCT-116 (CrC), 72 hrs, WST-1 (Table 2), read-out: Maximal efficacy, cytotoxicity (%) at 100 μM): 93.5% | cytotoxicity at 100 µM ([12]; Homo sapiens, DU-145, DU145 (PrC), 72 hrs, WST-1 (Table 2), read-out: Maximal efficacy, cytotoxicity (%) at 100 μM): 92.5% | cytotoxicity at 100 µM ([13]; Homo sapiens, A2058, 72 h, read-out: Maximal efficacy, cytotoxicity (%) at 100 μM): 97%

SMILES: CC[C@H](C)[C@@H]([C@@H](CC(=O)N1CCCC1[C@H](OC)[C@@H](C)C(=O)N[C@H](C)[C@@H](O)c1ccccc1)OC)N(C)C(=O)[C@@H](NC(=O)[C@H](C(C)C)N(C)C(=O)OCc1ccc(NC(=O)[C@@H]2CCCN2C(=O)[C@H](CC(C)C)NC(=O)[C@H](CC(C)C)NC(=O)[C@H](C)NC(=O)CP(=O)(O)O)cc1)C(C)C (stereo partly drawn) [PhAc-ALLP-PABC-MMAE] (Phosphonoacetyl-ALLP[PABC][NMeV]V[Dil][X1]-X2)
Toxicity compared to MMAE on mammary epithelial (HME-1) cells ([5]; HME-1 normal cells): not significantly different | IC50 ([5]; HME-1 normal cells, 72 hrs, WST-1 (Table 4)): 0.01 µM | Maximal efficacy ([5]; HME-1 normal cells, 72 hrs, WST-1, cytotoxicity at highest concentration (Table 5)): 99.5% | SI = HUVEC IC50 / cancer IC50 ([7]; A-172 (GBM), * towards HUVEC cells (Table 6)): *1.9 | SI = iAstro IC50 / cancer IC50 ([7]; A-172 (GBM), ** towards hiPSCs (iAstro) (Table 6)): **>500 | SI = normal IC50 / cancer IC50 ([7]; A-172 (GBM), selectivity towards HME-1 cells (Table 6)): 0.1 | IC50 ([7]; A-172 (GBM), 72 hrs, WST-1 (Table 4)): 0.09 µM | Maximal efficacy ([7]; A-172 (GBM), 72 hrs, WST-1 (Table 5)): 97.4% | Selectivity index determined on HUVECs, GBM ([7]; GBM indication as a whole (A-172 and U-87 MG), vs HUVEC): 2.2 | Selectivity index towards hiPSC-derived astrocytes, GBM ([7]; GBM indication as a whole (A-172 and U-87 MG), vs iAstro): > 10 | SI = HUVEC IC50 / cancer IC50 ([8]; U-87 MG (GBM), * towards HUVEC cells (Table 6)): *2.4 | SI = iAstro IC50 / cancer IC50 ([8]; U-87 MG (GBM), ** towards hiPSCs (iAstro) (Table 6)): **>500 | SI = normal IC50 / cancer IC50 ([8]; U-87 MG (GBM), selectivity towards HME-1 cells (Table 6)): 0.1 | IC50 ([8]; U-87 MG (GBM), 72 hrs, WST-1 (Table 4)): 0.07 µM | Maximal efficacy ([8]; U-87 MG (GBM), 72 hrs, WST-1 (Table 5)): 86.6% | IC50 ([14]; WST-1 (Table 4), read-out: Absolute IC50): 0.17 µM | Maximal efficacy ([14]; WST-1 (Table 5)): 98.1% | SI = normal IC50 / cancer IC50 ([10]; MDA-MB-231 (TNBC), selectivity towards HME-1 cells (Table 6)): 0.2 | IC50 ([10]; MDA-MB-231 (TNBC), 72 hrs, WST-1 (Table 4)): 0.04 µM | Maximal efficacy ([10]; MDA-MB-231 (TNBC), 72 hrs, WST-1 (Table 5)): 77.6% | SI = normal IC50 / cancer IC50 ([13]; A2058 (Melanoma), selectivity towards HME-1 cells (Table 6)): 0.3 | IC50 ([13]; A2058 (Melanoma), 72 hrs, WST-1 (Table 4)): 0.03 µM | Maximal efficacy ([13]; A2058 (Melanoma), 72 hrs, WST-1 (Table 5)): 95.2%
